The experiment has as its system collagen 1. Briefly: WI-38 collagen 1 inhibition assay (anti-Collagen I immunofluorescence).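 Further: minus sign means inactive.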 The experiment is classed as cell-based. Particulars: cellular EC50, WI-38 human lung fibroblasts, values are LogEC50 classes.
Take `c1ccn2cc(CN3CCN(c4ccncc4)CC3)nc2c1` [compound 274, 2-[[4-(4-pyridyl)piperazin-1-yl]methyl]imidazo[1,2-a]pyridine]: the “COL1 Efficacy (LogEC50)” value is on record as “−”.
As to `c1cc(N2CCN(Cc3ccc4[nH]ccc4c3)CC2)ccn1` [compound 264, 5-[[4-(4-pyridyl)piperazin-1-yl]methyl]-1H-indole], the “COL1 Efficacy (LogEC50)” value was “−”.
On to `Cc1cc(N2CCN(Cc3cc4ccccc4[nH]3)CC2)ccn1` [Compound 221, 2-[[4-(2-methyl-4-pyridyl)piperazin-1-yl]methyl]-1H-indole], for which the “COL1 Efficacy (LogEC50)” value is on record as “−”.
In the case of `c1cc(N2CCN(Cc3ccc4cc[nH]c4c3)CC2)ccn1` [compound 265, 6-[[4-(4-pyridyl)piperazin-1-yl]methyl]-1H-indole], the “COL1 Efficacy (LogEC50)” value is “++ (++: −5 to −6)”.
Then `Cc1ncnc(N2CCN(Cc3nc4c(C(F)(F)F)cccc4o3)CC2)c1C` [compound 295, 2-((4-(5,6-dimethylpyrimidin-4-yl)piperazin-1-yl)methyl)-4-(trifluoromethyl)benzo[d]oxazole], with “+++ (+++: <−6)”; and `Cc1ncnc(N2CCN(Cc3nc4ccc(F)cc4o3)CC2)c1C#N` [compound 329, 4-(4-((6-fluorobenzo[d]oxazol-2-yl)methyl)piperazin-1-yl)-6-methylpyrimidine-5-carbonitrile], with “++ (++: −5 to −6)”.
To `Cc1ncnc(N2CCN(Cc3nc4ccccc4o3)CC2)c1Cl` [compound 310, 2-((4-(5-chloro-6-methylpyrimidin-4-yl)piperazin-1-yl)methyl)benzo[d]oxazole] belongs “++ (++: −5 to −6)”; to `c1ccc2[nH]c(CN3CCN(c4ccnc5[nH]ccc45)CC3)cc2c1` [compound 242, 4-[4-(1H-indol-2-ylmethyl)piperazin-1-yl]-1H-pyrrolo[2,3-b]pyridine], “+ (+: >−5)”.
Take `c1ccc(-c2ccc3[nH]c(CN4CCN(c5ccncc5)CC4)cc3c2)cc1` [compound 219, 5-phenyl-2-[[4-(4-pyridyl)piperazin-1-yl]methyl]-1H-indole]: the “COL1 Efficacy (LogEC50)” value is listed as “−”.
To `Cc1ncnc(N2CCN(Cc3cc4ccccc4[nH]3)CC2)c1C` [Compound 202, 2-((4-(5,6-dimethylpyrimidin-4-yl)piperazin-1-yl)methyl)-1H-indole] belongs “+++ (+++: <−6)”; to `C#CCCC1(CCOc2ccc3cc(CN4CCN(c5ncncc5CC)CC4)[nH]c3c2)N=N1` [compound 338, 6-(2-(3-(but-3-yn-1-yl)-3H-diazirin-3-yl)ethoxy)-2-((4-(5-ethylpyrimidin-4-yl)piperazin-1-yl)methyl)-1H-indole], “+++ (+++: <−6)”; to `c1cncc(N2CCN(Cc3cc4ccccc4[nH]3)CC2)c1` [Compound 217, 2-[[4-(3-pyridyl)piperazin-1-yl]methyl]-1H-indole], “+ (+: >−5)”.
Then `CCc1cncnc1N1CCN(Cc2nc3ccc(COCCOC)cc3[nH]2)CC1` [compound 289, 2-((4-(5-ethylpyrimidin-4-yl)piperazin-1-yl)methyl)-6-((2-methoxyethoxy)methyl)-1H-benzo[d]imidazole], with “+++ (+++: <−6)”.
To `Cn1nccc1N1CCN(Cc2nc3ccccc3o2)CC1` [compound 325] belongs “−”.
For `c1ccc(N2CCN(Cc3cc4ccccc4[nH]3)CC2)cc1` [compound 241, 2-[(4-phenylpiperazin-1-yl)methyl]-1H-indole], the “COL1 Efficacy (LogEC50)” value is on record as “++ (++: −5 to −6)”.
To `FC(F)(F)c1ccc2[nH]c(CN3CCN(c4ccncc4)CC3)cc2c1` [compound 226, 2-[[4-(4-pyridyl)piperazin-1-yl]methyl]-5-(trifluoromethyl)-1H-indole] belongs “+ (+: >−5)”.
To `c1ccc2[nH]c(CN3CCN(c4ccc5cn[nH]c5c4)CC3)cc2c1` [Compound 286, 6-(4-((1H-indol-2-yl)methyl)piperazin-1-yl)-1H-indazole] belongs “−”.

The values are drawn from patent publication US20230150980A1, “COLLAGEN 1 TRANSLATION INHIBITORS AND METHODS OF USE THEREOF” (Anima Biotech Inc., priority 2020, published 2023).
